From article PMC13621370, “Targeting Telomere Shelterin Protein TPP1 with Elbasvir: Induction of Autophagy and Suppression of Esophageal Cancer Tumorigenesis” (Anti-Cancer Agents in Medicinal Chemistry, 2025)

Molecular target: T1, telomere shelterin protein TPP1 (Homo sapiens, UniProt Q96AP0)
T1 construct: gene ACD; endogenous protein in RIPA lysate of KYSE150 and TE1 cells; not purified; 2I46 used only for docking
T1 sequence (Q96AP0 1-458): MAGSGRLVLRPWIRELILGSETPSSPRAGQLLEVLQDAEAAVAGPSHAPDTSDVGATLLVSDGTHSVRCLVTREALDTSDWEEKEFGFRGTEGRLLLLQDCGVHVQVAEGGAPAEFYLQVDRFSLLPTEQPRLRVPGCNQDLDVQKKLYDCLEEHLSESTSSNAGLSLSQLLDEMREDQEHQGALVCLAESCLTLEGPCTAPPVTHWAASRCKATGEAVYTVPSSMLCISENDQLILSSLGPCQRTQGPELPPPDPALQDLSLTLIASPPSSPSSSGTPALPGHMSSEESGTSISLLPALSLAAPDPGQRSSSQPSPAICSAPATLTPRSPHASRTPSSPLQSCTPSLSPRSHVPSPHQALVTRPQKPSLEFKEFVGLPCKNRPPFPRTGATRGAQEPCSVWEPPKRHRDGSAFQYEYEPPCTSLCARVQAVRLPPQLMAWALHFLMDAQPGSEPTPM
Test: DARTS (pronase protection, Western blot of TPP1)
Type: biochemical
Settings: 400 uM Elbasvir, cell lysate, ambient temperature, 2 h, then pronase 20 min

COC(=O)N[C@H](C(=O)N1CCC[C@H]1c1ncc(-c2ccc3c(c2)O[C@@H](c2ccccc2)n2c-3cc3cc(-c4cnc([C@@H]5CCCN5C(=O)[C@@H](NC(=O)OC)C(C)C)[nH]4)ccc32)[nH]1)C(C)C [Elbasvir]
DARTS (pronase protection, Western blot of TPP1): the presence of Elbasvir increased the stability of TPP1 protein, protecting it from proteolysis
